From the supplement of paper PMC10307832

How the values were obtained:
Test in all cases: relative viability (nuclei count vs DMSO), 5 days (fraction); higher = more cells survive
Decitabine + Navitoclax = compound: Nc1ncn([C@H]2C[C@H](O)[C@@H](CO)O2)c(=O)n1 [Decitabine] + CC1(C)CCC(c2ccc(Cl)cc2)=C(CN2CCN(c3ccc(C(=O)NS(=O)(=O)c4ccc(N[C@H](CCN5CCOCC5)CSc5ccccc5)c(S(=O)(=O)C(F)(F)F)c4)cc3)CC2)C1 [Navitoclax] (partner 0.5 µM)
Outline: (§1)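 Lung cancer cell lines, seeded in 1536-well plates, were treated the following day by pin tool with a single drug or with five library-drug doses (not always all listed) in √10 steps on top of a fixed anchor-drug dose. Cells were fixed and nuclei stained in one step after 5 days, and nuclei were counted. Relative viability is the nuclei count for treated wells divided by that for vehicle wells, reported as medians of duplicate plates.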

Decitabine + Pemetrexed = compound: Nc1ncn([C@H]2C[C@H](O)[C@@H](CO)O2)c(=O)n1 [Decitabine] + Nc1nc2[nH]cc(CCc3ccc(C(=O)N[C@@H](CCC(=O)O)C(=O)O)cc3)c2c(=O)[nH]1 [Pemetrexed] (partner 0.2 µM)
Outline: as §1

[1] = compound: O=C(C[C@H]1NCCC[C@@H]1O)Cn1cnc2cc(Br)c(Cl)cc2c1=O (racemic) [Halofuginone] + CC1(C)CCC(c2ccc(Cl)cc2)=C(CN2CCN(c3ccc(C(=O)NS(=O)(=O)c4ccc(N[C@H](CCN5CCOCC5)CSc5ccccc5)c(S(=O)(=O)C(F)(F)F)c4)cc3)CC2)C1 [Navitoclax] (partner 0.5 µM)
Outline: as §1

[2] = compound: O=C(C[C@H]1NCCC[C@@H]1O)Cn1cnc2cc(Br)c(Cl)cc2c1=O (racemic) [Halofuginone] + N=C(N)NC(=N)NCCc1ccccc1 [Phenformin] (partner 250 µM)
Outline: as §1

Cell Line UMC-11 has a relative viability (Decitabine + Navitoclax; first compound 0.04 µM) of 0.316, a relative viability (Decitabine + Navitoclax; first compound 0.1265 µM) of 0.29 and a relative viability (Decitabine + Navitoclax; first compound 0.4 µM) of 0.215. For the same cell line, the relative viability (Decitabine + Navitoclax; first compound 1.265 µM) was 0.162, the relative viability (Decitabine + Navitoclax; first compound 4 µM) was 0.145 and the relative viability (Decitabine + Pemetrexed; first compound 0.04 µM) was 0.691. It also gave a relative viability (Decitabine + Pemetrexed; first compound 0.1265 µM) of 0.563, a relative viability (Decitabine + Pemetrexed; first compound 0.4 µM) of 0.406 and a relative viability (Decitabine + Pemetrexed; first compound 1.265 µM) of 0.358. For the same cell line, the relative viability (Decitabine + Pemetrexed; first compound 4 µM) was 0.351, the relative viability ([1]; first compound 0.001 µM) was 0.325 and the relative viability ([1]; first compound 0.003162 µM) was 0.314. The relative viability ([1]; first compound 0.01 µM) was 0.324, the relative viability ([1]; first compound 0.03162 µM) was 0.26 and the relative viability ([1]; first compound 0.1 µM) was 0.138. The relative viability ([2]; first compound 0.001 µM) was 0.345, the relative viability ([2]; first compound 0.003162 µM) was 0.343 and the relative viability ([2]; first compound 0.01 µM) was 0.324. For the same cell line, the relative viability ([2]; first compound 0.03162 µM) was 0.316 and the relative viability ([2]; first compound 0.1 µM) was 0.267.
